Assay results: patent publication US20240425490A1, “SULFAMIDE RIBONUCLEOTIDE REDUCTASE (RNR) INHIBITORS AND USES THEREOF” (Boundless Bio, Inc., priority 2021, published 2024)

Biological target: T1, RNR (RNR1:RNR2 1:1) (Homo sapiens, UniProt P23921)
T1 sequence (P23921 1-792): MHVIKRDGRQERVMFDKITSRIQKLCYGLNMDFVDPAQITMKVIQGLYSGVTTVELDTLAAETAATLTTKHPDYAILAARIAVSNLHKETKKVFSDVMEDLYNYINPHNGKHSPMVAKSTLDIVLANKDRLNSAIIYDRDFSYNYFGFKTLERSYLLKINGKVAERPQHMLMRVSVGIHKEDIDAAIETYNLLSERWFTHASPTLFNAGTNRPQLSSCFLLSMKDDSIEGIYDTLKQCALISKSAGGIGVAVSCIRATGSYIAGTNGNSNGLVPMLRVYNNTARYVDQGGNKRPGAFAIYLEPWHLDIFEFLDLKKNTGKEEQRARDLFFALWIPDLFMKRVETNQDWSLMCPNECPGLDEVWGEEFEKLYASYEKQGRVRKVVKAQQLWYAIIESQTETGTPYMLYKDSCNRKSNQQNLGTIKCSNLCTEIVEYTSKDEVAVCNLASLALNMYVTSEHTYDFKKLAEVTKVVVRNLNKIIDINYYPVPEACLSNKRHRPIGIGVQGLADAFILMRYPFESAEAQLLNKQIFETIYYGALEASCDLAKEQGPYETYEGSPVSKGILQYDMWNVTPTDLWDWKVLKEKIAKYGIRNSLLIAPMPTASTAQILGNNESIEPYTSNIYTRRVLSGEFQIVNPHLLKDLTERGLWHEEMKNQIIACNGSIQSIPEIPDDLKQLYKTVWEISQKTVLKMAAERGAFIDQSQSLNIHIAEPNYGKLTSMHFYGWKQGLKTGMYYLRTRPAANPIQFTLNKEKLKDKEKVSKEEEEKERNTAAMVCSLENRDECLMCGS
Test: RNR enzyme activity, rapid-fire mass spectrometry (RFMS) assay
Format: biochemical
Settings: RNR 50 nM, CDP 5 μM, ATP 1 mM, 37° C., 45 min, compounds screened up to 50 μM, read-out: RF/MS IC50
Procedure, shortened: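 Human RNR1:RNR2 (1:1, 50 nM) pre-incubated 15 min at room temperature with compound, then reacted with 5 μM CDP and 1 mM ATP, no NADPH, for 45 min at 37 °C. Stopped with 6% HCOOH; turnover read by rapid-fire mass spectrometry; Triapine and hydroxyurea as reference compounds.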

IC50 [µM] | Compound
1 to 10 | Cc1ccc(F)c([C@H](C)[C@H](NS(=O)(=O)N2CC3C(C2)C3(C)C)c2n[nH]c(=O)o2)c1C (stereo partly drawn) [Example 103, N-((1S,2S)-2-(6-fluoro-2,3-dimethylphenyl)-1-(5-oxo-4,5-dihydro-1,3,4-oxadiazol-2-yl)propyl)-6,6-dimethyl-3-azabicyclo[3.1.0]hexane-3-sulfonamide]
10 to 100 | Cc1ccc(F)c([C@@H](C)[C@H](NS(=O)(=O)N2CCCCC2C(=O)O)c2n[nH]c(=O)o2)c1C (stereo partly drawn) [Example 13, 1-(N-((1S,2R)-2-(6-fluoro-2,3-dimethylphenyl)-1-(5-oxo-4,5-dihydro-1,3,4-oxadiazol-2-yl)propyl)sulfamoyl)piperidine-2-carboxylic acid]
0.1 to 1 | Cc1ccc(F)c([C@@H](C)[C@H](NS(=O)(=O)N2CCC(C)CC2)c2n[nH]c(=O)o2)c1C [Example 115, N-((1S,2R)-2-(6-fluoro-2,3-dimethylphenyl)-1-(5-oxo-4,5-dihydro-1,3,4-oxadiazol-2-yl)propyl)-4-methylpiperidine-1-sulfonamide]
1 to 10 | Cc1ccc(F)c([C@H](C)[C@H](NS(=O)(=O)N2CCC(C(C)(C)C)CC2)c2n[nH]c(=O)o2)c1C [Example 132, 4-(tert-butyl)-N-((1S,2S)-2-(6-fluoro-2,3-dimethylphenyl)-1-(5-oxo-4,5-dihydro-1,3,4-oxadiazol-2-yl)propyl)piperidine-1-sulfonamide]
1 to 10 | Cc1ccc(F)c([C@@H](C)[C@H](NS(=O)(=O)N2CCCC(C)(C)C2)c2n[nH]c(=O)o2)c1C [Example 117, N-((1S,2R)-2-(6-fluoro-2,3-dimethylphenyl)-1-(5-oxo-4,5-dihydro-1,3,4-oxadiazol-2-yl)propyl)-3,3-dimethylpiperidine-1-sulfonamide]
10 to 100 | CNC(=O)C1CCN(S(=O)(=O)N[C@H](c2n[nH]c(=O)o2)[C@@H](C)c2c(F)ccc(C)c2C)CC1 [Example 56, 1-(N-((1S,2S)-2-(6-fluoro-2,3-dimethylphenyl)-1-(5-oxo-4,5-dihydro-1,3,4-oxadiazol-2-yl)-propyl)sulfamoyl)-N-methylpiperidine-4-carboxamide]
0.1 to 1 | Cc1ccc(F)c([C@@H](C)[C@H](NS(=O)(=O)N2CC3C(C2)C3(C)C)c2n[nH]c(=O)o2)c1C (stereo partly drawn) [Example 102, N-((1S,2R)-2-(6-fluoro-2,3-dimethylphenyl)-1-(5-oxo-4,5-dihydro-1,3,4-oxadiazol-2-yl)propyl)-6,6-dimethyl-3-azabicyclo[3.1.0]hexane-3-sulfonamide]
1 to 10 | Cc1ccc(F)c(C(C)[C@H](NS(=O)(=O)N2CCC(C(F)(F)F)CC2)c2n[nH]c(=O)o2)c1C (stereo partly drawn) [Example 33, N-((1S)-2-(6-fluoro-2,3-dimethylphenyl)-1-(5-oxo-4,5-dihydro-1,3,4-oxadiazol-2-yl)propyl)-4-(trifluoromethyl)piperidine-1-sulfonamide]
0.1 to 1 | Cc1ccc(F)c([C@@H](C)[C@H](NS(=O)(=O)N2CCC3(CC2)CC(F)(F)C3)c2n[nH]c(=O)o2)c1C [Example 94, 2,2-difluoro-N-((1S,2R)-2-(6-fluoro-2,3-dimethylphenyl)-1-(5-oxo-4,5-dihydro-1,3,4-oxadiazol-2-yl)propyl)-7-azaspiro[3.5]nonane-7-sulfonamide]
1 to 10 | COCC1CCCN(S(=O)(=O)N[C@H](c2n[nH]c(=O)o2)[C@H](C)c2c(F)ccc(C)c2C)C1 (stereo partly drawn) [Example 129, N-((1S,2R)-2-(6-fluoro-2,3-dimethylphenyl)-1-(5-oxo-4,5-dihydro-1,3,4-oxadiazol-2-yl)propyl)-3-(methoxymethyl)piperidine-1-sulfonamide]
0.1 to 1 | COCC1CCN(S(=O)(=O)N[C@H](c2n[nH]c(=O)o2)[C@H](C)c2c(F)ccc(C)c2C)CC1 [Example 127, N-((1S,2R)-2-(6-fluoro-2,3-dimethylphenyl)-1-(5-oxo-4,5-dihydro-1,3,4-oxadiazol-2-yl)propyl)-4-(methoxymethyl)piperidine-1-sulfonamide]
1 to 10 | COCC1CCCN(S(=O)(=O)N[C@H](c2n[nH]c(=O)o2)[C@@H](C)c2c(F)ccc(C)c2C)C1 (stereo partly drawn) [Example 130, N-((1S,2S)-2-(6-fluoro-2,3-dimethylphenyl)-1-(5-oxo-4,5-dihydro-1,3,4-oxadiazol-2-yl)propyl)-3-(methoxymethyl)piperidine-1-sulfonamide]
